{
  "source": "patent US20070202134A1",
  "about": "“Muc1 Antagonist Enhancement of Death Receptor Ligand-Induced Apoptosis” (priority 2004, published 2007)",
  "type_in_all_cases": "cell-based, Human",
  "key": {"[1]": {"system": "cytochrome c", "test": "Release of mitochondrial cytochrome c to the cytosol (immunoblot), HCT116/vector cells", "conditions": "HCT116/vector cells treated with CDDP", "method": "(§1) Cell culture. Human HCT116 colon carcinoma cells (ATCC, Manassas, Va.) were cultured in Dulbecco's modified Eagle's medium/F12 with 10% heat-inactivated fetal bovine serum, 100 units/ml penicillin, […] streptomycin and 2 mM L-glutamine. Cells were treated with EGF (10 ng/ml; Calbiochem-Novabiochem, San Diego, Calif.), HRG (20 ng/ml; Calbiochem-Novabiochem), cisplatin (CDDP; Sigma), etoposide (Sigma), rhTNF-a (Promega, Madison, Wis.), CHX (Sigma) or rhTRAIL (100 ng/ml; Calbiochem-Novabiochem).\n(§2) Immunoblot analysis. Lysates were prepared from subconfluent cells as described (Li et al., 2001a). Equal amounts of protein were separated by SDS-PAGE and transferred to nitrocellulose membranes. […] The immunocomplexes were detected with horseradish peroxidase-conjugated secondary antibodies and enhanced chemiluminescence (ECL, Amersham Biosciences, Piscataway, N.J.). Intensity of the signals was determined by densitometric scanning. […]"}, "[2]": {"system": "HCT116/MUC1 cells", "test": "Cell death after CDDP treatment, HCT116/MUC1 cells", "conditions": "CDDP for 72 h, cessation of cell growth", "method": "as §1\n(§3) Methods. Experimental procedures and methods were as described in Example 1."}, "[3]": {"system": "HCT116/vector cells", "test": "Cell death after CDDP treatment, HCT116/vector cells", "conditions": "CDDP for 72 h", "method": "as §1, §3"}, "[4]": {"system": "HCT116/MUC1(Y46F) cells", "test": "Cell death after CDDP treatment, HCT116/MUC1(Y46F) cells", "conditions": "CDDP for 72 h", "method": "as §1, §3"}, "[5]": {"system": "HCT116/vector cells", "test": "Apoptosis by analysis of sub-G1 DNA, HCT116/vector cells", "method": "Methods. Apoptotic cells were quantified by analysis of sub-G1 DNA and TUNEL staining. To assess sub-G1 DNA content, cells were harvested, washed with PBS, fixed with 80% ethanol, and incubated in PBS containing 20 ng/ml RNase (Roche) for 60 min at 37° C. Cells were then stained with […] propidium iodide (Sigma) for 30 min at room temperature in the dark. DNA content was analyzed by flow cytometry (EPICS XL-MCL, Coulter Corp.). Apoptotic cells with DNA fragmentation were detected by staining with the In Situ cell death detection kit (TUNEL; Roche Applied Science) and visualized by confocal microscopy (ZEISS LSM510). After staining, cells were analyzed by flow cytometry. Other experimental procedures and methods were as described in Example 1."}, "[6]": {"system": "MUC1 C-ter", "test": "Expression of MUC1 C-ter after CHX", "conditions": "CHX treatment", "method": "Immunoblot analysis. Lysates were prepared from subconfluent cells as described (Li et al., 2001a). Equal amounts of protein were separated by SDS-PAGE and transferred to nitrocellulose membranes. […] The immunocomplexes were detected with horseradish peroxidase-conjugated secondary antibodies and enhanced chemiluminescence (ECL, Amersham Biosciences, Piscataway, N.J.). Intensity of the signals was determined by densitometric scanning.\nMethods. Apoptotic cells were quantified by analysis of sub-G1 DNA and TUNEL staining. […] DNA content was analyzed by flow cytometry (EPICS XL-MCL, Coulter Corp.). Apoptotic cells with DNA fragmentation were detected by staining with the In Situ cell death detection kit (TUNEL; Roche Applied Science) and visualized by confocal microscopy (ZEISS LSM510). After staining, cells were analyzed by flow cytometry. […]"}, "[7]": {"system": "MUC1 C-ter", "test": "Mitochondrial localization of MUC1 C-ter in HCT116/MUC1 cells (immunoblot of mitochondrial fractions)", "method": "as §1, §2"}, "[8]": {"system": "MUC1(Y46F) C-ter", "test": "Mitochondrial localization of MUC1(Y46F) C-ter in HCT116/MUC1(Y46F) cells (immunoblot of mitochondrial fractions)", "method": "as §1, §2"}},
  "data": [
    {"molecule": "[NH2][Pt]([NH2])([Cl])[Cl]", "note": "[CDDP, cisplatin]", "values": [
      {"measurement": "levels of cytosolic cytochrome c", "setting": "[1]", "result": "increased levels of cytosolic cytochrome c"},
      {"measurement": "cell death", "setting": "[2]", "result": "< 30", "unit": "%"},
      {"measurement": "cell death", "setting": "[3]", "result": "> 90", "unit": "%"},
      {"measurement": "cell death", "setting": "[4]", "result": "> 90", "unit": "%"},
      {"measurement": "apoptosis (sub-G1 DNA)", "setting": "[5]; 100 μM CDDP for 24 h", "result": "approximately 40%"}
    ]},
    {"molecule": "C[C@@H]1C[C@@H]([C@H](O)CC2CC(=O)NC(=O)C2)C(=O)[C@@H](C)C1", "note": "[CHX, cycloheximide]", "values": [
      {"measurement": "effect on expression of MUC1 C-ter", "setting": "[6]", "result": "no apparent effect"}
    ]},
    {"molecule": "EGF: EGF (10 ng/ml; Calbiochem-Novabiochem) (NSDSECPLSHDGYCLHDGVCMYIEALDKYACNCVVGYIGERCQYRDLKWWELR; Epidermal growth factor; UniProt P01133 971-1023, looked up)", "values": [
      {"measurement": "effect on mitochondrial targeting of MUC1 C-ter", "setting": "[7]; EGF 10 ng/ml", "result": "little effect"},
      {"measurement": "effect on mitochondrial targeting of MUC1 C-ter", "setting": "[8]; EGF 10 ng/ml", "result": "little effect"}
    ]},
    {"molecule": "TNF-α", "values": [
      {"measurement": "induction of apoptosis", "setting": "[5]; 20 ng/ml TNF-α in the presence of 10 ng/ml cycloheximide (CHX), 12 hr", "result": "associated with induction of HCT116/vector cell apoptosis"},
      {"measurement": "induction of apoptosis", "setting": "[5]; TNF-α alone", "result": "failed to induce apoptosis"}
    ]},
    {"molecule": "heregulin [HRG]", "values": [
      {"measurement": "increase in localization of MUC1 C-ter to mitochondria", "setting": "[7]; HRG 20 ng/ml, 0.5 h, persisted through 3 h", "result": 2.3, "unit": "fold"},
      {"measurement": "effect on mitochondrial localization of MUC1(Y46F) C-ter", "setting": "[8]; HRG 20 ng/ml", "result": "little effect"}
    ]}
  ]
}
